Results published in ChEMBL document CHEMBL5729557, “5-membered heteroaryl carboxamide compounds for treatment of HBV” (2023).
“And” between values parts separate entries of the source, which are not always exact repeats. Equal values may be shown once.

Assay: Assay Measuring Activity of Test Compounds on Viral Production from HepAD38 Cells: HepAD38 cells grown in a T-150 flask (Corning, cat #: 430825) with Growth Medium (DMEM/F12 (1:1) (Hyclone, cat #: SH30023.02), 1× Pen/Strep (Invitrogen, cat #: 15140-122), 10% FBS (Tissue Culture Biologics, cat #: 101), 250 μg/mL G418 (Alfa Aesar, cat #: J62671), 1 μg/mL Tetracycline (Teknova, cat #: T3320)) were detached with 0.25% trypsin-EDTA to (Invitrogen, cat #: 25200-056). Tetracycline-free treatment medium (15 mL DMEM/F12 (1:1) 1× Pen/step, with 2% FBS, Tet-system approved (Clontech, cat #: 631106) were then added to mix, transferred into a 50 ml conical tube (Falcon, cat #: 21008-918,) and spun at 1300 rpm for 5 min. Pelleted cells were then re-suspended/washed with 50 mL of 1×DPBS (Invitrogen, cat #: 14190-136) 2 times and 50 mL treatment medium twice. HepAD38 cells were then re-suspended with 10 mL of treatment medium, syringed and counted. Wells of 96-well clear bottom TC plate (Corning, cat #: 3904,) were seeded at 50,000 cells/well in 180 μL of treatment medium, and 20 μL of either 10% DMSO (Sigma, cat #: D4540) as controls or a 10× solution of test compounds in 10% DMSO in treatment media was added for a final compound concentration starting at 10 μM, and plates were incubated in 5% CO2 incubator at 37° C. for 5 days.Subsequently viral load production was assayed by quantitative PCR (qPCR) of the HBV core sequence. PCR reaction mixture containing forward primers HBV-f 5′-CTGTGCCTTGGGTGGCTTT-3′ (IDT DNA), Reverse primers HBV-r 5′-[…]-3′ (IDT DNA), Fluorescent TaqMan™ Probes HBV-probe 5′-FAM/AGCTCCAAA/ZEN/[…]/3IABkFQ-3′ (IDT DNA), 10 μL/well of PerfeCTa® qPCR ToughMix® (Quanta Biosciences, Cat #: 95114-05K), and 6 μL/well of DEPC water (Alfa Aesar, cat #: J62087) was prepared. […] of supernatant was added to 16 μL of the reaction mixture in a qPCR plate (Applied Biosytems, Cat #: 4309849), sealed with a film (Applied Biosystems, Cat #: 4311971), centrifuged for a few seconds, and subsequently run on an Applied Biosystems VIIA7. The PCR mixture was incubated at 45° C. for 5 min, then 95° C. for 10 min, followed by 40 cycles of 10 seconds at 95° C. and 20 seconds at 60° C. Viral load was quantified against known HBV DNA standards by using ViiA™ 7 Software. Viral load in the supernatant from wells with treated cells were compared against viral load in supernatant from DMSO control wells (>3 per plate). Cell viability assay was performed with CellTiter-Glo Luminescent Cell Viability Assay (Promega, cat #: G7573) with modification. Mixed appropriate amount of CellTiter-Glo (CTG) 1×DPBS in a 1:1 ratio, added 100 uL of the mixture to each well followed completely removal of all supernatant in each well without touching cell surface. Incubated the plate at room temperature for 10 min on an orbital shaker, and then read the plate with a plate reader (TECAN M1000 or Envision).

Row | Compound | EC50 (HePAD38) | EC50
1 | CSC1CC2CC(c3nn(C)c(N)c3C(=O)Nc3ccc(F)c(Cl)c3)CC2C1 (centres undefined) | < 100 nM | 
2 | CNC(=O)C1CC2CC(c3nn(C)c(N)c3C(=O)Nc3ccc(F)c(Cl)c3)CC2C1 (centres undefined) | < 100 nM | 
3 | Cn1cc([C@H]2CC[C@@H](c3nn(C)c(N)c3C(=O)Nc3ccc(F)c(Cl)c3)C2)cn1 | < 100 nM | 
4 | COc1cccc(C2CCC(c3nn(C)c(N)c3C(=O)Nc3ccc(F)c(Cl)c3)C2)c1 (centres undefined) | < 100 nM | 
5 | Cn1nc([C@@H]2CC3CC(=NO)C[C@@H]3C2)c(C(=O)Nc2ccc(F)c(Cl)c2)c1N (some centres undefined) | < 100 nM | 
6 | Cn1nc([C@H]2CC3COC(=O)C[C@H]3C2)c(C(=O)Nc2ccc(F)c(Cl)c2)c1N (some centres undefined) | < 100 nM | 
7 | Cn1nc(C2CC3CC(O)(C(=O)NC4CC4)CC3C2)c(C(=O)Nc2ccc(F)c(Cl)c2)c1N (centres undefined) | in the range around 300 nM | 
8 | Cn1nc(C2CC3CC(NS(=O)(=O)C(F)(F)F)CC3C2)c(C(=O)Nc2ccc(F)c(Cl)c2)c1N (centres undefined) | < 100 nM | 
9 | Cn1nc(C2CC3CC(N4CCNC4=O)CC3C2)c(C(=O)Nc2ccc(F)c(Cl)c2)c1N (centres undefined) | < 100 nM | 
10 | Nc1[nH]nc(C2CC3CC(=O)CC3C2)c1C(=O)Nc1ccc(F)c(Cl)c1 (centres undefined) | in the range around 300 nM | 
11 | Cn1nc([C@@H]2CC3COC(=O)C[C@@H]3C2)c(C(=O)Nc2ccc(F)c(Cl)c2)c1N (some centres undefined) | in the range around 300 nM | 
12 | Cn1nc([C@@H]2CC3COC(=O)C[C@H]3C2)c(C(=O)Nc2ccc(F)c(Cl)c2)c1N (some centres undefined) | in the range around 300 nM | 
13 | COc1cccc([C@@H]2CC[C@H](c3nn(C)c(N)c3C(=O)Nc3ccc(F)c(Cl)c3)C2)c1 | < 100 nM | 
14 | Cn1cc(-c2ccc([C@H]3CC[C@H](c4nn(C)c(N)c4C(=O)Nc4ccc(F)c(Cl)c4)C3)cc2)cn1 | < 100 nM | 
15 | CCSC1CC2CC(c3nn(C)c(N)c3C(=O)Nc3ccc(F)c(Cl)c3)CC2C1 (centres undefined) | < 100 nM | 
16 | Cn1nc(C2CC3CC(C#N)CC3C2)c(C(=O)Nc2ccc(F)c(Cl)c2)c1N (centres undefined) | < 100 nM | 
17 | Cn1nc(C2CC3CC(OCC(F)(F)F)CC3C2)c(C(=O)Nc2ccc(F)c(Cl)c2)c1N (centres undefined) | < 100 nM | 
18 | CC(=O)N1CC2CC(c3nn(C)c(N)c3C(=O)Nc3ccc(F)c(Cl)c3)CC2C1 (centres undefined) | < 100 nM | 
19 | Cn1nc([C@H]2C[C@H](c3ccccc3)C2)c(C(=O)Nc2ccc(F)c(Cl)c2)c1N | in the range around 300 nM | 

Row | Compound | EC50 (HePAD38) | EC50
20 | CC(=O)NC1CC2CC(c3nn(C)c(N)c3C(=O)Nc3ccc(F)c(Cl)c3)CC2C1 (centres undefined) | < 100 nM | 
21 | Cn1nc(C2CC3CC(OC(C)(C)C)CC3C2)c(C(=O)Nc2ccc(F)c(Cl)c2)c1N (centres undefined) | < 100 nM | 
22 | COC(=O)N1CC2CC(c3nn(C)c(N)c3C(=O)Nc3ccc(F)c(Cl)c3)CC2C1 (centres undefined) | < 100 nM | 
23 | Cn1nc(C2CC3CC(CCO)CC3C2)c(C(=O)Nc2ccc(F)c(Cl)c2)c1N (centres undefined) | < 100 nM | 
24 | COc1ccc([C@@H]2CC[C@H](c3nn(C)c(N)c3C(=O)Nc3ccc(F)c(Cl)c3)C2)cc1 |  | < 100 nM and in the range around 300 nM
25 | CC(C)S(=O)(=O)N1CC2CC(c3nn(C)c(N)c3C(=O)Nc3ccc(F)c(Cl)c3)CC2C1 (centres undefined) | < 100 nM | 
26 | Cn1nc(C2CC3CC(N4CCCS4(=O)=O)CC3C2)c(C(=O)Nc2ccc(F)c(Cl)c2)c1N (centres undefined) | < 100 nM | 
27 | Cn1cc(C2CC3CC(c4nn(C)c(N)c4C(=O)Nc4ccc(F)c(Cl)c4)CC3C2)cn1 (centres undefined) | < 100 nM | 
28 | CNC(=O)N1CC2CC(c3nn(C)c(N)c3C(=O)Nc3ccc(F)c(Cl)c3)CC2C1 (centres undefined) | < 100 nM | 
29 | Cn1nc(C2CCN(c3ccccc3)C2)c(C(=O)Nc2ccc(F)c(Cl)c2)c1N (centres undefined) | in the range around 300 nM | 
30 | Cn1nc(C2CC3CC([S+](C)[O-])CC3C2)c(C(=O)Nc2ccc(F)c(Cl)c2)c1N (centres undefined) | < 100 nM | 
31 | Cn1nc(C2CC3CC(S(C)(=O)=O)CC3C2)c(C(=O)Nc2ccc(F)c(Cl)c2)c1N (centres undefined) | < 100 nM | 
32 | Cn1nc(C2CC3CC(N4CCOC4=O)CC3C2)c(C(=O)Nc2ccc(F)c(Cl)c2)c1N (centres undefined) | < 100 nM | 
33 | Cn1nc(C2CC3COC(=O)CC3C2)c(C(=O)Nc2ccc(F)c(Cl)c2)c1N (centres undefined) | < 100 nM | < 100 nM
34 | Cn1nc(C2CC3CN(S(C)(=O)=O)CC3C2)c(C(=O)Nc2ccc(F)c(Cl)c2)c1N (centres undefined) | < 100 nM | 
35 | Cn1nc(C2CC3CC(O)(CS(=O)(=O)NC4CC4)CC3C2)c(C(=O)Nc2ccc(F)c(Cl)c2)c1N (centres undefined) |  | in the range around 300 nM and < 100 nM
36 | Cn1nc([C@@H]2CC[C@@H](c3ccccc3)C2)c(C(=O)Nc2ccc(F)c(Cl)c2)c1N | < 100 nM | 
37 | Cn1nc(C2CC3CC(O)(C4CC4)CC3C2)c(C(=O)Nc2ccc(F)c(Cl)c2)c1N (centres undefined) | < 100 nM | 
38 | Cn1nc([C@H]2CC3CC(=NO)C[C@@H]3C2)c(C(=O)Nc2ccc(F)c(Cl)c2)c1N (some centres undefined) | < 100 nM | 
